What was measured:
Mus musculus [1] = species on record: Mus musculus; assay: Concentration at which compound induced concentration-dependent stimulation of the MLR responses in murine spleen cells; range = 80 ng/mL to 2 ug/mL; type: functional, cell-based
Mus musculus [2] = species on record: Mus musculus; assay: Concentration at which compound suppressed the MLR response (mixed leukocyte reaction) in murine spleen cells; range = 80 ng/mL to 2 ug/mL; type: functional, cell-based

SMILES: CCCCCCCCCCCCC/C=C/[C@@H](O)[C@H](CO[C@@H]1O[C@@H](CO)[C@H](O)[C@H](O)[C@@H]1O)NC(C)=O
- Concentration (Mus musculus [1]): 2 µg/mL

SMILES: CCCCCCCCCCCCC/C=C/[C@@H](O)[C@H](CO)NC(C)=O
- Concentration (Mus musculus [2]): 2 µg/mL
